Measured values taken from PMC3694426 (Clinical cancer research : an official journal of the …, 2013).
“Also recorded” adds a separate entry of the source.

Assay: phase I dose escalation: DLTs, MTD and treatment-emergent adverse events
Format: in vivo, human
Settings: for patients who experienced DLTs: modified DLT criteria

## CC1=C2C[C@H]3[C@@H](CC[C@@H]4C[C@H](NS(C)(=O)=O)CC[C@@]43C)[C@@H]2CC[C@@]2(C1)O[C@@H]1C[C@H](C)CN[C@H]1[C@H]2C [IPI-926]
20 mg QD
  DLTs per total patients treated: 0/1
30 mg QD
  DLTs per total patients treated: 0/1
40 mg QD
  DLTs per total patients treated: 0/1
60 mg QD
  DLTs per total patients treated: 0/1
90 mg QD
  DLTs per total patients treated: 0/1
130 mg (n = 56), Grade 1–2
  ALT elevation (lab), treatment-emergent adverse event: 40 (71) n (%)
  AST elevation (lab), treatment-emergent adverse event: 41 (73) n (%)
  Alopecia, treatment-emergent adverse event: 17 (30) n (%)
  Decreased appetite, treatment-emergent adverse event: 12 (21) n (%)
  Diarrhea, treatment-emergent adverse event: 15 (27) n (%)
  Dysgeusia, treatment-emergent adverse event: 6 (11) n (%)
  Fatigue, treatment-emergent adverse event: 29 (52) n (%)
  Muscle spasms, treatment-emergent adverse event: 11 (20) n (%)
  Nausea, treatment-emergent adverse event: 23 (41) n (%)
  Thrombocytopenia (lab), treatment-emergent adverse event: 12 (21) n (%)
  Vomiting, treatment-emergent adverse event: 11 (20) n (%)
130 mg (n = 56), Grade ≥3
  ALT elevation (lab), treatment-emergent adverse event: 4 (7) n (%)
  AST elevation (lab), treatment-emergent adverse event: 2 (4) n (%)
  Alopecia, treatment-emergent adverse event: 0 (0) n (%)
  Decreased appetite, treatment-emergent adverse event: 0 (0) n (%)
  Diarrhea, treatment-emergent adverse event: 0 (0) n (%)
  Dysgeusia, treatment-emergent adverse event: 1 (2) n (%)
  Fatigue, treatment-emergent adverse event: 3 (5) n (%)
  Hemoglobin (lab), treatment-emergent adverse event: 2 (4) n (%)
  Muscle spasms, treatment-emergent adverse event: 1 (2) n (%)
  Nausea, treatment-emergent adverse event: 0 (0) n (%)
  Thrombocytopenia (lab), treatment-emergent adverse event: 3 (5) n (%)
  Vomiting, treatment-emergent adverse event: 0 (0) n (%)
130 mg QD
  DLTs per total patients treated: 0/56
160 mg (n = 18), Grade 1–2
  ALT elevation (lab), treatment-emergent adverse event: 10 (55) n (%)
  AST elevation (lab), treatment-emergent adverse event: 14 (78) n (%)
  Alopecia, treatment-emergent adverse event: 4 (22) n (%)
  Decreased appetite, treatment-emergent adverse event: 5 (28) n (%)
  Diarrhea, treatment-emergent adverse event: 2 (11) n (%)
  Dysgeusia, treatment-emergent adverse event: 4 (22) n (%)
  Fatigue, treatment-emergent adverse event: 8 (44) n (%)
  Hemoglobin (lab), treatment-emergent adverse event: 12 (66) n (%)
  Muscle spasms, treatment-emergent adverse event: 6 (33) n (%)
  Nausea, treatment-emergent adverse event: 6 (33) n (%)
  Thrombocytopenia (lab), treatment-emergent adverse event: 4 (22) n (%)
  Vomiting, treatment-emergent adverse event: 6 (33) n (%)
160 mg (n = 18), Grade ≥3
  ALT elevation (lab), treatment-emergent adverse event: 5 (28) n (%)
  AST elevation (lab), treatment-emergent adverse event: 2 (11) n (%)
  Alopecia, treatment-emergent adverse event: 0 (0) n (%)
  Decreased appetite, treatment-emergent adverse event: 0 (0) n (%)
  Diarrhea, treatment-emergent adverse event: 1 (6) n (%)
  Dysgeusia, treatment-emergent adverse event: 1 (6) n (%)
  Fatigue, treatment-emergent adverse event: 3 (17) n (%)
  Hemoglobin (lab), treatment-emergent adverse event: 1 (6) n (%)
  Muscle spasms, treatment-emergent adverse event: 0 (0) n (%)
  Nausea, treatment-emergent adverse event: 0 (0) n (%)
  Thrombocytopenia (lab), treatment-emergent adverse event: 0 (0) n (%)
  Vomiting, treatment-emergent adverse event: 0 (0) n (%)
160 mg QD
  DLT description: Grade 3 AST and ALT elevation
  patients with DLT (grade 3 ALT and grade 3 AST elevation): 1 of 6
160 mg QD (dose selected for phase II)
  DLTs per total patients treated: 1/18
160 mg QD, the MTD
  patients with ≥grade 3 ALT elevations: 28%
  patients with ≥grade 3 AST elevations: 11%
180 mg QD
  DLT description: Grade 3 fatigue and anorexia; also recorded: Grade 3 AST and ALT elevation
  patients who experienced DLTs: 2 patients
180 mg QD (intolerable dose level)
  DLTs per total patients treated: 2/5
200 mg QD
  DLT description: Grade 3 AST elevation; also recorded: Grade 3 ALT elevation
  patients with adverse events that met DLT criteria: 2 patients
200 mg QD (intolerable dose level)
  DLTs per total patients treated: 2/3
210 mg QD
  DLT description: Grade 3 AST and ALT elevation; also recorded: Grade 2 ALT elevation and hyperbilirubinemia
  patients who experienced DLTs: 2 patients
210 mg QD (intolerable dose level)
  DLTs per total patients treated: 2/7
6 of 94 patients
  patients discontinued from the study due to toxicity: 6%
